Consider 36 molecules from US8735391B2, “Synthesis of functionalized octahydro-isoquinolin-1-one-8-carboxamides, octahydro-isoquinolin-1-one-8-carboxylic esters and analogs, and therapeutic methods” (University of Kansas, priority 2008, dated 2014).

Experiment [1] addresses T1, KOR (Homo sapiens, UniProt P41145). Description: [35S]GTPγS binding functional agonist assay on membranes of CHO cells expressing hKOR (reference agonist U69593). In kind it is biochemical. Further details: expressed in transfected cells; host or cells: CHO cells, stably transfected; crude membrane fractions. The note with it: for Emax values relative to U69593: [35S]GTPγS data-fit top relative to reference agonist U69593; for KOR agonist (average percent efficacy relative to cognate agonist): test compound at 10 micromolar, N=4, reference agonist = 100%, CHO-cell line expressing hKOR. The protocol: The compounds prepared herein were tested for bioactivity with opioid receptors. Agonist assays: Data represent the percent efficacy (relative to cognate agonist) of the test compound at 10 micromolar. The response to a saturating concentration of a reference antagonist or to vehicle (usually none or negligible) is set to 0%. […] The response inhibition elicited by a saturating concentration of reference antagonist is set to 100%; the response inhibition (usually none or negligible) elicited by vehicle is set to 0%. The following tables provide data related to the bioactivity for opioid receptors of the compounds described herein.
Table 6 provides data that represent the average percent efficacy (N=4; relative to cognate agonist) of the test compound at 10 micromolar concentration. The response to a saturating concentration of cognate/reference agonist is set to 100%; the response to a saturating concentration of a reference antagonist or to vehicle (usually none or negligible) is set to 0%. All functional assays are performed on stably transfected CHO-cell lines expressing hKOR, hMOR or hDOR.
(§1) Serial dilutions of the test and reference compounds are made in binding buffer at 2× assay concentration (final assay concentrations ranging from 0.1 nM to 10 μM). Crude membrane fractions (1.8 to 3.5 cm2/well) (prepared from 10-cm plates by harvesting PBS-rinsed monolayers, resuspending and lysing in chilled, hypotonic 50 mM Tris-HCl, pH 7.4, centrifuging at 20,000×g, decanting the supernatant and storing at −80 degrees centigrade; typically, one 10-cm plate provides sufficient material for 24 wells) are resuspended in 1.2 ml of assay buffer containing 20 μM GDP, wheat germ agglutinin (WGA)-coated scintillation proximity beads (2.4 mg), and [35S]GTPγS (300 pM final). The suspension is then added (50 μl/well) to 50 μl of the 2× test or reference compounds (each concentration assayed in triplicate) in flexible transparent PET 96-well plates. The reaction plate is sealed and incubated for 90 min at room temperature, then centrifuged for 5 min at 216×g, and finally loaded into a Wallac MicroBeta TriLux counter. Non-specific [35S]GTPγS binding is assessed at the maximum concentration of reference agonist in the presence of 10 μM antagonist. The background signal is measured at 10 μM reference agonist in the presence of 10 μM unlabeled GTPγS. Raw data (dpm) representing total [35S]GTPγS binding (i.e., specific+non-specific binding) are calculated as a percentage of the maximum response by the reference agonist (in this case U69593).
as §1, with “GTPγS.” for “GTPγS. Raw data (dpm) representing total [35S]GTPγS binding (i.e., specific+non-specific binding) are calculated as a percentage of the maximum response by the reference agonist (in this case U69593).”

Experiment [2] concerns the target T1, KOR. The experiment in a line: Opioid secondary binding, KOR (Tables 4, 5, 8, 9). The note with it: Opioid secondary binding activity for Formula 10 analogs; read-out: KOR, Ki.
The target in experiment [3] is DOR (Homo sapiens, UniProt P41143). The experiment in a line: Opioid secondary binding, DOR (Table 4). The note with it: Opioid secondary binding activity for Formula 10 analogs.
Chain of DOR (P41143 whole entry): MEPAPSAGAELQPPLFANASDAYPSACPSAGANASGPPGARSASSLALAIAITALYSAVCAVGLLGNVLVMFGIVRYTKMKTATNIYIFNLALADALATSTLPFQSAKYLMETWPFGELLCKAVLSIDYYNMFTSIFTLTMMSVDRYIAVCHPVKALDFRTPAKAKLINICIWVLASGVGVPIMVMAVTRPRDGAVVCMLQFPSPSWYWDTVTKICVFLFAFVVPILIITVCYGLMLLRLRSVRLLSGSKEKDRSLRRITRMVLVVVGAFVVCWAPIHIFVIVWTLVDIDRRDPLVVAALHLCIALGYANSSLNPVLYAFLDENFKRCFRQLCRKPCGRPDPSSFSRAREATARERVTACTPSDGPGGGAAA

T1 sequence (P41145 whole entry): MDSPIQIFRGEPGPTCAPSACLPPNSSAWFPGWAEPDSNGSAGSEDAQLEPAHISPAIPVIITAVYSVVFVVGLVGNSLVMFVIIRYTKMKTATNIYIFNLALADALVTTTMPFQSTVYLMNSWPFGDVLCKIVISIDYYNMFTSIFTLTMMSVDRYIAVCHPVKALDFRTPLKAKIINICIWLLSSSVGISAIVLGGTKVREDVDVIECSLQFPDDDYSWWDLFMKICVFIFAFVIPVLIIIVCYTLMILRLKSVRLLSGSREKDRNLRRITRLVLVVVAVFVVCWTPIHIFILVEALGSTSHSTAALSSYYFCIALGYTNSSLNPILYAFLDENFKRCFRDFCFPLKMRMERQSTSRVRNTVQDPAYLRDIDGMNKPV

Regarding `O=C(Nc1ccc(Cl)c(C(F)(F)F)c1)[C@@H]1CC=C[C@@H]2CCN(c3ccccc3)C(=O)[C@@H]21` (racemic) [compound 10825], the “Emax values relative to U69593” value in experiment [1] is recorded as 82%. Further, the Ki (in general, a measure of affinity in units of concentration, obtained from inhibition or displacement) in experiment [2] is 100 nM.
`O=C(NCc1ccc(Cl)c(C(F)(F)F)c1)[C@@H]1CC=C[C@@H]2CCN(c3ccccc3)C(=O)[C@@H]21` (racemic) [compound 11862]: the “Emax values relative to U69593” value in experiment [1] stood at 81%. In experiment [2], the Ki amounted to 98 nM.
In the case of `O=C(NC1CCCCC1)[C@@H]1CC=C[C@@H]2CCN(C3CC3)C(=O)[C@@H]21` (racemic) [compound 8921], in experiment [1], the “KOR agonist (average percent efficacy relative to cognate agonist)” value was determined as 4.1%.
As to `CCCCNC(=O)[C@@H]1CC=C[C@@H]2CCN(CCCC)C(=O)[C@@H]21` (racemic) [compound 8919], in experiment [1], the “KOR agonist (average percent efficacy relative to cognate agonist)” value came to 40.3%. Besides, the Ki in experiment [2] is 2810 nM.
For the molecule `O=C(Nc1ccc(Br)c(C(F)(F)F)c1)[C@@H]1CC=C[C@@H]2CCN(Cc3cccc(Br)c3)C(=O)[C@@H]21` (racemic) [compound 12171], the Ki was 694 nM in experiment [2] and 503 nM in experiment [3].
In the same order, the values of `O=C(Nc1ccc(I)cc1)[C@@H]1CC=C[C@@H]2CCN(Cc3ccccc3)C(=O)[C@@H]21` (racemic) [compound 11954] are 2820 nM and 194 nM.
As to `Cc1ccc(NC(=O)[C@@H]2CC=C[C@@H]3CCN(Cc4ccccc4)C(=O)[C@@H]32)cc1C(F)(F)F` (racemic) [compound 13475], the Ki in experiment [2] amounted to 1160 nM; in experiment [3], 39 nM.
On to `CCCCN1CC[C@H]2C=CC[C@@H](C(=O)N3CCN(c4ccccc4)CC3)[C@H]2C1=O` (racemic) [compound 8914], for which the “KOR agonist (average percent efficacy relative to cognate agonist)” value in experiment [1] is 9.9%.
On the same count and under the same terms, under `COc1ccc(NC(=O)[C@@H]2CC=C[C@@H]3CCN(C4CC4)C(=O)[C@@H]32)cc1` (racemic) [compound 8944] stands 1%.
As for `CC(c1ccccc1)N1CCC2C=CCC(C(=O)Nc3ccccc3)C2C1=O` (mixture of isomers) [compound 12164], the Ki in experiment [2] is 4780 nM; in experiment [3] it was 1380 nM.
In the case of `O=C(Nc1ccc(Br)c(C(F)(F)F)c1)[C@@H]1CC=C[C@@H]2CCN(Cc3ccccc3F)C(=O)[C@@H]21` (racemic) [compound 13478], the Ki in experiment [2] is 299 nM; in experiment [3], 22 nM.
In the same order, the values of `COc1ccccc1CN1CC[C@H]2C=CC[C@@H](C(=O)Nc3ccc(C)c(C(F)(F)F)c3)[C@H]2C1=O` (racemic) [compound 13481] are 1900 nM and 1340 nM.
In the case of `CC(c1ccccc1)N1CCC2C=CCC(C(=O)NC3CCCCC3)C2C1=O` (mixture of isomers) [compound 12163], the values for the inhibition constant (Ki) in experiment [2] and in experiment [3] were 5910 nM and 1160 nM, respectively.
With `O=C(Nc1ccc(Cl)cc1Cl)[C@@H]1CC=C[C@@H]2CCN(C3CC3)C(=O)[C@@H]21` (racemic) [compound 8948], the “KOR agonist (average percent efficacy relative to cognate agonist)” value in experiment [1] came out at 29.6%.
Regarding `Cc1ccc(NC(=O)[C@@H]2CC=C[C@@H]3CCN(Cc4ccccc4)C(=O)[C@@H]32)cc1Cl` (racemic) [compound 11931], the Ki is 2570 nM in experiment [2] and 61 nM in experiment [3].
In the case of `CCCCN1CC[C@H]2C=CC[C@@H](C(=O)NCc3ccc(OC)cc3)[C@H]2C1=O` (racemic) [compound 8927], the “KOR agonist (average percent efficacy relative to cognate agonist)” value in experiment [1] is 8.7%.
On the same count and under the same terms, under `O=C([C@@H]1CC=C[C@@H]2CCN(C3CC3)C(=O)[C@@H]21)N1CCOCC1` (racemic) [compound 8909] stands 7.8%.
On to `O=C(NCc1cccc(Br)c1)[C@@H]1CC=C[C@@H]2CCN(Cc3ccccc3)C(=O)[C@@H]21` (racemic) [compound 11955], for which the Ki in experiment [2] worked out at 3280 nM; in experiment [3], 438 nM.
In the same order, the values of `O=C(Nc1ccc(Cl)cc1)[C@@H]1CC=C[C@@H]2CCN(Cc3ccccc3)C(=O)[C@@H]21` (racemic) [compound 12102] are 5030 nM and 165 nM.
With `O=C(NCc1cccnc1)[C@@H]1CC=C[C@@H]2CCN(C3CC3)C(=O)[C@@H]21` (racemic) [compound 8930], the “KOR agonist (average percent efficacy relative to cognate agonist)” value in experiment [1] was 4%.
Turning to `O=C(Nc1ccc(Cl)c(C(F)(F)F)c1)[C@@H]1CC=C[C@@H]2CCN(Cc3cccc(Br)c3)C(=O)[C@@H]21` (racemic) [compound 12170], the values for the Ki in experiment [2] and in experiment [3] were 1460 nM and 1720 nM, respectively.
Take `O=C(NCCc1ccccc1)[C@@H]1CC=C[C@@H]2CCN(C3CC3)C(=O)[C@@H]21` (racemic) [compound 8917]: in experiment [1], the “KOR agonist (average percent efficacy relative to cognate agonist)” value is recorded as 6.6%.
In the case of `O=C(NCc1ccc(Cl)c(Cl)c1)[C@@H]1CC=C[C@@H]2CCN(Cc3ccccc3)C(=O)[C@@H]21` (racemic) [compound 12148], the Ki in experiment [2] came out at 2780 nM; in experiment [3] it was 644 nM.
For the molecule `O=C(Nc1ccc(Cl)c(C(F)(F)F)c1)[C@@H]1CC=C[C@@H]2CCN(Cc3ccc(Cl)c(Cl)c3)C(=O)[C@@H]21` (racemic) [compound 8957], the “KOR agonist (average percent efficacy relative to cognate agonist)” value in experiment [1] worked out at 33.1%.
Regarding `COc1ccc(CNC(=O)[C@@H]2CC=C[C@@H]3CCN(Cc4ccc(OC)c(OC)c4)C(=O)[C@@H]32)cc1` (racemic) [compound 8929], the “KOR agonist (average percent efficacy relative to cognate agonist)” value in experiment [1] is recorded as 3.6%.
Consider `O=C(Nc1ccc([N+](=O)[O-])c(C(F)(F)F)c1)[C@@H]1CC=C[C@@H]2CCN(Cc3ccccc3)C(=O)[C@@H]21` (racemic) [compound 11932], for which the Ki was determined as 200 nM in experiment [2] and 41 nM in experiment [3].
As for `O=C1[C@H]2[C@H](C=CC[C@H]2C(=O)N2CCCC2)CCN1Cc1ccccc1` (racemic) [compound 12099], affinity in experiment [3] was put at a Ki of 6650 nM.
Same read-out and setting: in the case of `Cc1cc(C)c(NC(=O)[C@@H]2CC=C[C@@H]3CCN(Cc4ccccc4)C(=O)[C@@H]32)c(C)c1` (racemic) [compound 11957] it was 3220 nM; in that of `O=C(Nc1ccc([N+](=O)[O-])cc1)[C@@H]1CC=C[C@@H]2CCN(c3ccccc3)C(=O)[C@@H]21` (racemic) [compound 11947], 141 nM.
`COc1ccc(CNC(=O)[C@@H]2CC=C[C@@H]3CCN(C4CC4)C(=O)[C@@H]32)cc1` (racemic) [compound 8925]: the “KOR agonist (average percent efficacy relative to cognate agonist)” value in experiment [1] is listed as 5.4%.
In experiment [3], `O=C(Nc1ccc(Br)c(C(F)(F)F)c1)[C@@H]1CC=C[C@@H]2CCN(CC3CC3)C(=O)[C@@H]21` (racemic) [compound 12172] yielded a Ki of 1280 nM.
`O=C(NC12CC3CC(CC(C3)C1)C2)[C@@H]1CC=C[C@@H]2CCN(CC3CC3)C(=O)[C@@H]21` (racemic) [compound 11940] had an inhibitory constant (Ki) in experiment [3] of 701 nM.
With `CCCCN1CC[C@H]2C=CC[C@@H](C(=O)N3CCOCC3)[C@H]2C1=O` (racemic) [compound 8911], in experiment [1], the “KOR agonist (average percent efficacy relative to cognate agonist)” value is recorded as 8.3%.
As for `COc1ccc(CNC(=O)[C@@H]2CC=C[C@@H]3CCN(Cc4ccccc4)C(=O)[C@@H]32)cc1OC` (racemic) [compound 12126], the Ki in experiment [3] is > 10000 nM.
Same read-out and setting: under `O=C(Nc1ccc(F)c(C(F)(F)F)c1)[C@@H]1CC=C[C@@H]2CCN(Cc3ccccc3)C(=O)[C@@H]21` (racemic) [compound 13474] stands 192 nM; under `O=C(Nc1ccccc1)[C@@H]1CC=C[C@@H]2CCCN(C3CCCCC3)C(=O)[C@@H]21` (racemic) [compound 14423], 8840 nM.
